Marks after values point to notes of the source that are not given here.
How the values were obtained:
[1] = tested on: carrageenan induced paw oedema; assay: Inhibition of carrageenan induced oedema in rats; format: in vivo, rat; settings: CARR induced oedema test
Experimental: The treated paw was immersed up to the tibio-tarsal articulation into the chamber and the volume of displaced liquid was determined as the degree of the inflammation. Degree of inflammation (ml)=volume after the CARR treatment (ml)−volume before the CARR treatment (ml)
The degree of the anti-inflammatory effect of the treated group (which obtained test agent) was compared to that of the control group (which obtained only vehicle). The test compound and the vehicle were given orally by blunt-ended needle cannula one hour before the CARR treatment. The volume of the treated paw was measured at 3 and 5 hours after the CARR treatment and the change in the degree of inflammation in % was calculated according to the following formula: Anti-inflammatory activity %=100×[control group (ml)−treated group (ml)/control group (ml)]
[…] Anti-inflammatory activity of the compounds was determined in % at 4 and 6 hours after p.o. treatment and ED30 was calculated.

[2] = tested on: acetic acid induced chronic gastric ulcer; assay: Acetic acid induced chronic gastric ulcer in rats; format: in vivo, rat; settings: 2.0 mg/kg p.o. for seven days
Experimental: In our experiments the method […] of Okabe et al was used. Male Wistar rats of 150-170 g were narcotize part of the stomach.
The test compound was given p.o. on the fifth day after the operation for seven days. The animals were euthanized with ether after 24 hours of the last dose and the abdomen was macroscopically examined (exravasation, accretion), the stomach was excised and the diameters of ulcers were measured.

SMILES	melting point [°C]	further results
CCOC(=O)CONS(=O)(=O)c1ccc(-n2nc(C(F)(F)F)cc2-c2ccc(C)cc2)cc1 [Example 8, [4-(5-p-methylphenyl-3-trifluoromethyl-pyrazol-1-yl)-benzenesulfonylaminooxy]-acetic acid ethyl ester]	143 to 144	
Cc1ccc(-c2cc(C(F)(F)F)nn2-c2ccc(S(=O)(=O)NOCCC(=O)O)cc2)cc1 [Example 9, 3-[4-(5-p-methylphenyl-3-trifluoromethyl-pyrazol-1-yl)-benzenesulfonylaminooxy]-propionic acid]	176 to 178	
Cc1ccc(-c2cc(C(F)(F)F)nn2-c2ccc(S(=O)(=O)NOCC(=O)O)cc2)cc1 [Example 7, [4-(5-p-methylphenyl-3-trifluoromethyl-pyrazol-1-yl)-benzenesulfonylaminooxy]-acetic acid]	224 to 225	
Cc1ccc(-c2cc(C(F)(F)F)nn2-c2ccc(S(=O)(=O)NOC(C)C(=O)[O-])cc2)cc1.[Na+] (racemic) [Example 6, Disodium (R,S)-2-[4-(5-p-methylphenyl-3-trifluoromethyl-pyrazol-1-yl)-benzenesulfonyl-aminooxy]-propionic acid monohydrate]		anti-inflammatory activity compared with celecoxib [1]: significantly (p<0.05) higher
CC(=O)ONS(=O)(=O)c1ccc(-n2nc(C(F)(F)F)cc2-c2ccc(C)cc2)cc1 [Example 11, N-acetoxy-4-(5-p-methylphenyl-3-trifluoromethyl-pyrazol-1-yl)-benzenesulamide]	138 to 140	
COc1ccc2c(c1)c(CC(=O)O)c(C)n2C(=O)c1ccc(Cl)cc1 [Indometacin]		Area of ulcer (mm^2) [2]: 39.0 ± 5** mm^2; Change of bodyweight (g) + (increase) − (decrease) [2]: +2 ± 0.6 g

The next lines start with results.

melting point [°C]	SMILES	further results
152 to 155	Cc1ccc(-c2cc(C(F)(F)F)nn2-c2ccc(S(=O)(=O)NOC(=O)c3ccccc3)cc2)cc1 [Example 12, N-benzoyloxy-4-(5-p-methylphenyl-3-trifluoromethyl-pyrazol-1-yl)-benzenesulfonamide]	
137 to 138	CCOC(=O)C(C)ONS(=O)(=O)c1ccc(-n2nc(C(F)(F)F)cc2-c2ccc(C)cc2)cc1 (stereo not shown) [Example 10, 2-[4-(5-p-methylphenyl-3-trifluoromethyl-pyrazol-1-yl)-benzenesulfonylaminooxy]-propionic acid ethyl ester]	
134 to 136	Cc1ccc(-c2cc(C(F)(F)F)nn2-c2ccc(S(=O)(=O)NOC(=O)C(C)(C)C)cc2)cc1 [Example 13, N-pivaloyloxy-4-(5-p-methylphenyl-3-trifluoromethyl-pyrazol-1-yl)-benzenesulfonamide]	
